In patent US20220009920A1 (GB005, Inc., priority 2020, published 2022):
Like-named read-outs stand apart in the source and are kept apart here.

How the values were obtained:
Assay in all cases: Large panel kinase profiling
Assay type in all cases: biochemical
CAMKK2 = target: T1, CAMKK2 (Homo sapiens, UniProt Q96RR4); conditions: 1 μM test article, 1 mM ATP
T1 construct: AssayQuant Technologies, Inc. (ran the panel)
Outline: (§1)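 Profiling across the panel relied on the PhosphoSens CSox-Sensor format. A compound concentration of 1 μM and an ATP level of 1 mM were used throughout.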

CSNK1D/CK1D = target: T2, CSNK1D/CK1D (Homo sapiens, UniProt P48730); conditions: 1 μM test article, 1 mM ATP
T2 construct: AssayQuant Technologies, Inc. (service laboratory)
T2 sequence (P48730 whole entry): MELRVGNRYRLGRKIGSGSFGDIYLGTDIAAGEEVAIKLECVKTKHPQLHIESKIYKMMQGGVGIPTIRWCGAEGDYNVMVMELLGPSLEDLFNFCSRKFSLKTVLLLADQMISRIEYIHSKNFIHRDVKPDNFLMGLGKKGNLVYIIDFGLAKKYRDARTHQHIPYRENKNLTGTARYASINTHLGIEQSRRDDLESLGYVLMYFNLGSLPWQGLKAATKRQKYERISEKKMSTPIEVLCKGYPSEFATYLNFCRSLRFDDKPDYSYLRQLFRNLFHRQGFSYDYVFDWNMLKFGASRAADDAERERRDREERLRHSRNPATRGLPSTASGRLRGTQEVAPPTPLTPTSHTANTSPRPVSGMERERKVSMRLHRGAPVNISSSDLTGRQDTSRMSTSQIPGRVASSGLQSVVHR
Outline: as §1

LIMK1 = LIMK1 (Homo sapiens, UniProt P53667); conditions: 1 μM test article, 1 mM ATP
LIMK1, sequence (P53667 whole entry, species assumed): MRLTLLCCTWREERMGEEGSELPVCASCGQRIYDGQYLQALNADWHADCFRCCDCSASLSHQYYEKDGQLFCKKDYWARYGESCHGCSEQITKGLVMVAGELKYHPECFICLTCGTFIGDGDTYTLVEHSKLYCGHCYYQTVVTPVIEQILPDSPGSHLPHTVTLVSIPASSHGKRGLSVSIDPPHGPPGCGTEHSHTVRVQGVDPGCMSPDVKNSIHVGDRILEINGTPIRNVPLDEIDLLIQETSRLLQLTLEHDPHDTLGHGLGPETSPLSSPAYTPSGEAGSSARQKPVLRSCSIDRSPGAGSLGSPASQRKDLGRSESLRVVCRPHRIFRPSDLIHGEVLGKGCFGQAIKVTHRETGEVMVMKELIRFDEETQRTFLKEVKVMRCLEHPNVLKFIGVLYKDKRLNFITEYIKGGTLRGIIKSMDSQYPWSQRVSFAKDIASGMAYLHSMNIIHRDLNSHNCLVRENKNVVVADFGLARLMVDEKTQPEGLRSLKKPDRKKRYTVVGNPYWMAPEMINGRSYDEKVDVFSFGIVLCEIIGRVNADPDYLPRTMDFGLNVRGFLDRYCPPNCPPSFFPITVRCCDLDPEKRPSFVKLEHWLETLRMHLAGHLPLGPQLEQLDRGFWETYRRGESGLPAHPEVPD
Outline: as §1

LRRK2 = LRRK2 (Homo sapiens, UniProt Q5S007); conditions: 1 μM test article, 1 mM ATP
Outline: as §1

MAP3K10 = MAP3K10 (Homo sapiens, UniProt Q02779); conditions: 1 μM test article, 1 mM ATP
MAP3K10, sequence (Q02779 whole entry, species assumed): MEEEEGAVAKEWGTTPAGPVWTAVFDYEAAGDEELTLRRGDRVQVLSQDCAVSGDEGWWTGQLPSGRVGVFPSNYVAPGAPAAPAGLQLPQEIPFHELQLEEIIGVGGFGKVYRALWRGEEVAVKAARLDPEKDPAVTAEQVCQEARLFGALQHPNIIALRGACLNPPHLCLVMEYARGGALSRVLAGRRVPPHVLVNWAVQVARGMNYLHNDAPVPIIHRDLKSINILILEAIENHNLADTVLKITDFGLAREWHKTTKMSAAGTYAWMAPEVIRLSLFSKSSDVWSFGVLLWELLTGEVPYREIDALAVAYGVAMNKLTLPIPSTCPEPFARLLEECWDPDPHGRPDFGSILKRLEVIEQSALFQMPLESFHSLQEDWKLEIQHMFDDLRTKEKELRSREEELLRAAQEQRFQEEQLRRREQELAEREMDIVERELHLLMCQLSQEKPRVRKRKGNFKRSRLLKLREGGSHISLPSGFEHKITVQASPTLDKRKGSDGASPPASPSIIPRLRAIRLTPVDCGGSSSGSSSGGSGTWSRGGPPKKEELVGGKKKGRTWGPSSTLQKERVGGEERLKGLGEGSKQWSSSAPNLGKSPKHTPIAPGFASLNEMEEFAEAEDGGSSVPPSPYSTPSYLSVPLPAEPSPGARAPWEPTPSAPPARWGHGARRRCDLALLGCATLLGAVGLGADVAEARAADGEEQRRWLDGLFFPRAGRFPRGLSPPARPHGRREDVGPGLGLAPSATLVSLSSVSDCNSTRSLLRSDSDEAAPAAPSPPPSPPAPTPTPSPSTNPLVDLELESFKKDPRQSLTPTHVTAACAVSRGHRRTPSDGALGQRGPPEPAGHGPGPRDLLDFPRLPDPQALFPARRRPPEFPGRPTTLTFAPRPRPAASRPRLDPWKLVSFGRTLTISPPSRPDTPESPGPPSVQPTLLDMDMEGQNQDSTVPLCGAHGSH
Outline: as §1

PRKD3 = target: T3, PRKD3 (Homo sapiens, UniProt O94806); conditions: 1 μM test article, 1 mM ATP
T3 sequence (O94806 1-890): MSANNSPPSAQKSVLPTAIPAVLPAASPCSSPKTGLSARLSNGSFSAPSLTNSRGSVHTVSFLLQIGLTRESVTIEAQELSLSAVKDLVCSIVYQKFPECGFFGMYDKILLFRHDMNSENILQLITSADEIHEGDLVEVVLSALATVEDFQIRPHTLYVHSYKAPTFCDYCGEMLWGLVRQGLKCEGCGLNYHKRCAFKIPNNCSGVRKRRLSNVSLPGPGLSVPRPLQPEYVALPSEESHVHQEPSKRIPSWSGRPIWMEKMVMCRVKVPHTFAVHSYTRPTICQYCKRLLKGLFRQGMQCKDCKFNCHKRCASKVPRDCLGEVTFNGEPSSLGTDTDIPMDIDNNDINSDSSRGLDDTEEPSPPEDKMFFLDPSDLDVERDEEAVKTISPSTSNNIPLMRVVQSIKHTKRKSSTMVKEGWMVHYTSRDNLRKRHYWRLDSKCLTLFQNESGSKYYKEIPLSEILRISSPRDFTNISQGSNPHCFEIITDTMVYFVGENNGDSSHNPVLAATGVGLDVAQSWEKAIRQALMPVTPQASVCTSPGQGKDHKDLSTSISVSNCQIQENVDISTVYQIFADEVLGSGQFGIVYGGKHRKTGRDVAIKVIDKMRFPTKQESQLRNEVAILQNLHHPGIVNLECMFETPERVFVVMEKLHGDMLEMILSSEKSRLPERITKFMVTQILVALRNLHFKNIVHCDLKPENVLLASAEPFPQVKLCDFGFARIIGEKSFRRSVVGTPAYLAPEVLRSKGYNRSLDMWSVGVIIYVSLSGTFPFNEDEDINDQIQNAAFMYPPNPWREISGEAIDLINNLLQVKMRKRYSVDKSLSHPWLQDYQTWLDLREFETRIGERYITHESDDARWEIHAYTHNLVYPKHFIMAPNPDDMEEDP
Outline: as §1

PTK2B = PTK2B (Homo sapiens, UniProt Q14289)
PTK2B, sequence (Q14289 whole entry, species assumed): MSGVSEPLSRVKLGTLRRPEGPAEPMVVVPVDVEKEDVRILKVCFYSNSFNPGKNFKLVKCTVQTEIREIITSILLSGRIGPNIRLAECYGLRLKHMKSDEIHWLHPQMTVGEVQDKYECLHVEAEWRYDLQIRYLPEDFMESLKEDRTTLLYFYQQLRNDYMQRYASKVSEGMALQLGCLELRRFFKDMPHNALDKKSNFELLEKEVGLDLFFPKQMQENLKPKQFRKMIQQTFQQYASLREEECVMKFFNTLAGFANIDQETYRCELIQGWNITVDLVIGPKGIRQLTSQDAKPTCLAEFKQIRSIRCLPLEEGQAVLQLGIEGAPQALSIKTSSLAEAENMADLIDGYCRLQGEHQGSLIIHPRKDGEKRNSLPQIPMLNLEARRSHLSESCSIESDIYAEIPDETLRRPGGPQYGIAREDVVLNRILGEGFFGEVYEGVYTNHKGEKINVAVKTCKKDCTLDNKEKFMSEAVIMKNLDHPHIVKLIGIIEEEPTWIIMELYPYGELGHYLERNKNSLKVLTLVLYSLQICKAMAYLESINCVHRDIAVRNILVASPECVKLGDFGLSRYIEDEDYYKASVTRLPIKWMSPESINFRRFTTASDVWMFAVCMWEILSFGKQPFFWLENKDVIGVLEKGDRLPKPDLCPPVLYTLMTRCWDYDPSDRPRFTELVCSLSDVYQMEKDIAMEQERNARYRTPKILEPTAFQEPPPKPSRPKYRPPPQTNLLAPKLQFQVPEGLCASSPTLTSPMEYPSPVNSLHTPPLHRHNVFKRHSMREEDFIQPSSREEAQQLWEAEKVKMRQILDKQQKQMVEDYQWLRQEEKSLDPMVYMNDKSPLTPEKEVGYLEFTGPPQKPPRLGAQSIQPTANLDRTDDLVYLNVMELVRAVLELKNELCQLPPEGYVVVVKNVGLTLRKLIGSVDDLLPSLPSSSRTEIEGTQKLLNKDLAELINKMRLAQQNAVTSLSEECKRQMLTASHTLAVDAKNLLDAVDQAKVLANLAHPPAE
Outline: as §1

SGK2 = target: T4, SGK2 (Homo sapiens, UniProt Q9HBY8); conditions: 1 μM test article, 1 mM ATP
T4 construct: AssayQuant Technologies, Inc. (contract assay)
T4 sequence (Q9HBY8 1-367): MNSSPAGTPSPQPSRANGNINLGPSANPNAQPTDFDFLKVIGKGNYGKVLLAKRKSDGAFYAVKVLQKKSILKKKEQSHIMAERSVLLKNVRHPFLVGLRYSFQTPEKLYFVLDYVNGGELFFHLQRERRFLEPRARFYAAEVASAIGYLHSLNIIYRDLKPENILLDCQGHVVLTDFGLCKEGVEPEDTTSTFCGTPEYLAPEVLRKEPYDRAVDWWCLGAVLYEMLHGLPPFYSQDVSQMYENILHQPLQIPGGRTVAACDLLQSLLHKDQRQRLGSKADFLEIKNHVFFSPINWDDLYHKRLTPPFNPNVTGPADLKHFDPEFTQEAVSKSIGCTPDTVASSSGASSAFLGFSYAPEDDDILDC
Outline: as §1

TEC = target: T5, TEC (Homo sapiens, UniProt P42680); conditions: 1 μM test article, 1 mM ATP
T5 construct: AssayQuant Technologies, Inc. (contract laboratory that ran the panel)
T5 sequence (P42680 1-631): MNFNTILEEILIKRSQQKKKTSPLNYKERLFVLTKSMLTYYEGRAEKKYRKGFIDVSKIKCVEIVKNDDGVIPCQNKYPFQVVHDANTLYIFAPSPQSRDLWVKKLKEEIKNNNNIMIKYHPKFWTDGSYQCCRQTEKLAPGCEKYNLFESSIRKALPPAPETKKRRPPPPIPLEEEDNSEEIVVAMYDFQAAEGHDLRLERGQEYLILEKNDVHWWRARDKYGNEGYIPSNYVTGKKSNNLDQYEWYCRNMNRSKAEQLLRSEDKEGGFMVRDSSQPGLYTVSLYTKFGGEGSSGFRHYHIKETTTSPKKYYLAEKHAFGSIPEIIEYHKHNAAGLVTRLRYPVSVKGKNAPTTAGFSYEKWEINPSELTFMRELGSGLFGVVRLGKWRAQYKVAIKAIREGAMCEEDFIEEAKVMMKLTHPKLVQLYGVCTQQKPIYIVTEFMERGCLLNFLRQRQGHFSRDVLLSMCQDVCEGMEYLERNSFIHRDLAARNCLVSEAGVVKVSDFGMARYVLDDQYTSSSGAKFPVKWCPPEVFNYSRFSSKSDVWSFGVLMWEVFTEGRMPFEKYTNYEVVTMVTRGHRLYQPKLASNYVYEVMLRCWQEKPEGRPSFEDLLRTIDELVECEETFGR
Outline: as §1

TEK/TIE2 = target: T6, TEK/TIE2 (Homo sapiens, UniProt Q02763); conditions: 1 μM test article, 1 mM ATP
T6 construct: AssayQuant Technologies, Inc. (contract laboratory that ran the panel)
T6 sequence (Q02763 23-1124): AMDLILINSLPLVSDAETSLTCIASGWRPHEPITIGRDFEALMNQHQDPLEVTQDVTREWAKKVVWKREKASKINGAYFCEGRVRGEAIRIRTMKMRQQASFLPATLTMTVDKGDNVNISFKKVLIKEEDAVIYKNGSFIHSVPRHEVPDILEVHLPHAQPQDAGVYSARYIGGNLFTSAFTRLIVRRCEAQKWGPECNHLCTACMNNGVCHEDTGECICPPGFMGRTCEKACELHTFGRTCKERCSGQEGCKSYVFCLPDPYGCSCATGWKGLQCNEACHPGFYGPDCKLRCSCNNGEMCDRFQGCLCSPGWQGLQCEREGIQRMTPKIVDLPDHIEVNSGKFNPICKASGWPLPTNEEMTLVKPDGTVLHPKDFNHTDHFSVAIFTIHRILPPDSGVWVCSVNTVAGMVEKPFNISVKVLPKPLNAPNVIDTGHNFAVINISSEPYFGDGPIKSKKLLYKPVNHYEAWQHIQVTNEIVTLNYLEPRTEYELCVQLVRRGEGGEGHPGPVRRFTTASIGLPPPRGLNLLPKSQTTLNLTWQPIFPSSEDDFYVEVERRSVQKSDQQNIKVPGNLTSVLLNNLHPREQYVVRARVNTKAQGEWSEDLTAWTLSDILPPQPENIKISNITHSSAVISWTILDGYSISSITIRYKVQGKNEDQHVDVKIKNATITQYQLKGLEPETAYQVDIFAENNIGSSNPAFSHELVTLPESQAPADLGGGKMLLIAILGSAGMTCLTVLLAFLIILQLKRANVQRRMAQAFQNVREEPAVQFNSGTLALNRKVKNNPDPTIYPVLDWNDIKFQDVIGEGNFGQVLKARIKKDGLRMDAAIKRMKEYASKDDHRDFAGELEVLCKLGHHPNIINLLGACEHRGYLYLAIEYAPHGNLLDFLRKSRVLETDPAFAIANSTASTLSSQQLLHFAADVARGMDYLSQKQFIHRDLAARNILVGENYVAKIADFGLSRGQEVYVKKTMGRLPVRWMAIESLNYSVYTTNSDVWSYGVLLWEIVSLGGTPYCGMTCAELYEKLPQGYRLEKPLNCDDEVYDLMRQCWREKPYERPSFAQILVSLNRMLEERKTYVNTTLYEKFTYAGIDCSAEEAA
Outline: as §1

TNIK = target: T7, TNIK (Homo sapiens, UniProt Q9UKE5); conditions: 1 μM test article, 1 mM ATP
T7 construct: AssayQuant Technologies, Inc. (contract laboratory that ran the panel)
Outline: as §1

[1] = PTK2B, 1 μM test article, 1 mM ATP, read-out: % Inhibition

T1 sequence (Q96RR4 whole entry, species assumed): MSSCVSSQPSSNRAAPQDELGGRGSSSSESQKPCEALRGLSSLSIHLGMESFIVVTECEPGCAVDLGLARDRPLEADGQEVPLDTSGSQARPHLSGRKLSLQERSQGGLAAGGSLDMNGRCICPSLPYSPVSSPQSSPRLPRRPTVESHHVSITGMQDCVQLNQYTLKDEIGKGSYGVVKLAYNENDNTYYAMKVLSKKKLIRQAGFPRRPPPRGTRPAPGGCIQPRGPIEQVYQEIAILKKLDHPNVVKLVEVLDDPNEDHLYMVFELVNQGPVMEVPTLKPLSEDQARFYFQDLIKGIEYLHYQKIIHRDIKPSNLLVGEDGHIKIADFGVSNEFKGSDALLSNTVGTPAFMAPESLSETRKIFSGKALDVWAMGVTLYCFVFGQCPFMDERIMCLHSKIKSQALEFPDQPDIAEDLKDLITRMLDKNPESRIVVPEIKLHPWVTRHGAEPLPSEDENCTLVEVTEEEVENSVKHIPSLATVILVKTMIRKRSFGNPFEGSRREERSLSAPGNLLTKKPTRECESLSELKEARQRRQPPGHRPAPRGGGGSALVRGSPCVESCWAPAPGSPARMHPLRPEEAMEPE

| SMILES | inhibition at 1 µM (CAMKK2) [%] | inhibition at 1 µM (CSNK1D/CK1D) [%] | inhibition at 1 µM (LIMK1) [%] | inhibition at 1 µM (LRRK2) [%] | inhibition at 1 µM (MAP3K10) [%] | inhibition at 1 µM (PRKD3) [%] | inhibition at 1 µM (PTK2B; [1]) [%] | inhibition at 1 µM (SGK2) [%] | inhibition at 1 µM (TEC) [%] | inhibition at 1 µM (TEK/TIE2) [%] | inhibition at 1 µM (TNIK) [%] | inhibition at 1 µM (PTK2B) [%] |
| --- | --- | --- | --- | --- | --- | --- | --- | --- | --- | --- | --- | --- |
| C=CC(=O)N1CCCC(c2c(F)cc(C(N)=O)c3[nH]c4c(c23)CCCCC4)C1 (single isomer, unassigned) [Compound 5-6] | 25.8 | 4.2 | -7.2 | -8.9 | -8.6 | 4.4 | -16.1 | -46.7 | 80.3 | -11.2 | 9.9 | – |
| C=CC(=O)N1CCC[C@@H](c2c(F)cc(C(N)=O)c3[nH]c4c(c23)CC2(CC4)CC2)C1 [Compound 6-2, (S)-5-(1-acryloylpiperidin-3-yl)-6-fluoro-1,2,4,9-tetrahydrospiro[carbazole-3,1′-cyclopropane]-8-carboxamide] | 0.4 | 11.7 | -14.7 | -2.7 | 18.9 | -62.4 | – | -26.2 | 84.5 | 4.6 | -29.3 | -15.4 |
| C=CC(=O)N1CCC[C@@H](c2c(F)cc(C(N)=O)c3[nH]c4c(c23)CCC4)C1 [Compound 10-2, (S)-8-(1-acryloylpiperidin-3-yl)-7-fluoro-1,2,3,4-tetrahydrocyclo-penta[b]indole-5-carboxamide] | 2.6 | 16.5 | -10.7 | -7.2 | -17.7 | -65.4 | -8.8 | -34.9 | 76.1 | -15.2 | -22.9 | – |
